Laboratory results from PMC2885425, “Complete Phenotypic Recovery of an Alzheimer's Disease Model by a Quinone-Tryptophan Hybrid Aggregation Inhibitor” (PLoS ONE, 2010).

Experiments:
[1] = molecular target: T1, β-amyloid polypeptide (Aβ1–42) (Homo sapiens, UniProt P05067); assay: fluorescence anisotropy titration (Aβ[…] early assemblies); supported by 1H-NMR shift perturbation with Aβ[…] and ThT fibril inhibition (IC50 […]); type: binding
T1 construct: gene APP; Aβ1–42 (synthetic, early oligomeric assemblies); NMR with Aβ12–28
T1 sequence (P05067 672-713): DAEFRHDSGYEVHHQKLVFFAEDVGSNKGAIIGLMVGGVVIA

[2] = molecular target: Arctic (Arc) (E22G) mutant form of Aβ1–42 (human); assay: immunoprecipitation with antibody 6E10 and western blot of SDS-stable oligomers; head extracts (PBS, protease inhibitor, 1% SDS) of 6 day old Aβarc1-42-expressing flies on regular food; samples boiled

Kd [1] | stoichiometry N [2] | Compound
~90 nM | – | O=C1C=C(N[C@@H](Cc2c[nH]c3ccccc23)C(=O)O)C(=O)c2ccccc21 [IL, 1,4-naphthoquinon-2-yl-L-tryptophan]
– | 4 | Arctic (Arc) (E22G) mutant form of Aβ1–42 (peptide)
